{"source": "patent US9173906B2", "about": "“Methods and compositions for tissue regeneration” (SMITH & NEPHEW, INC., priority 2002, dated 2015)", "test_in_all_cases": "Mitomycin C growth arrest of fibroblasts (weekly cell counting, colony inspection)", "key": {"[1]": {"tested_on": "rat fibroblast cell line (CRL 1213)", "type": "cell-based", "details": "MMC treatment for 5 h", "method": "(§1) The rat fibroblast cell line (CRL 1213), the FGF1-transfected rat fibroblast cell line (1175/CRL 1213), the human telomerase immortalized fibroblast line (MDX12), and the primary human fibroblasts (EDX1) were each growth arrested using the following method. Fibroblasts were grown in DMEM+10% FCS, 25 mM Hepes, 1 mM pyruvate, 2 mM L-Gln, 100 U/ml penicillin, 100 μg/ml streptomycin in T75 flasks. […] The cells were then rinsed with PBS and detached with 0.05% trypsin/0.02% EDTA. The remaining cells were plated at densities of 100 to 5000 cells/cm^2 in T25-flasks respectively (10 flasks for each density). These cells were incubated at 37° C. with 2 media changes per week.\n(§2) Efficiency of cell growth arrest was measured by weekly counting of cells (using a hemacytometer) cultured in the flasks plated at a density of 5000 cells/cm^2 and by inspection of appearing colonies in the flasks plated at a density of 100 cells/cm^2. Changes in cell morphology were also examined."}, "[2]": {"tested_on": "FGF1-transfected rat fibroblast cell line (1175/CRL 1213)", "type": "cell-based", "method": "as §1, §2"}, "[3]": {"tested_on": "primary human fibroblasts (EDX1)", "details": "MMC treatment for 5 h", "method": "as §1, §2"}, "[4]": {"tested_on": "human telomerase immortalized fibroblast line (MDX12)", "details": "MMC treatment for 5 h", "method": "as §1, §2"}}}
{"smiles": "CO[C@@]12[C@H](COC(N)=O)C3=C(C(=O)C(C)=C(N)C3=O)N1C[C@@H]1N[C@@H]12", "note": "[mitomycin C]", "values": [{"measurement": "concentration optimal to growth arrest", "setting": "[1]", "value": 2, "unit": "µg/mL"}, {"measurement": "efficacy of concentrations below 1 μg/ml", "setting": "[2]", "value": "not efficacious"}, {"measurement": "concentration at which cells were growth arrested", "setting": "[2]; MMC treatment for 5 h", "value": 1, "unit": "µg/mL"}, {"measurement": "concentration sufficient to growth arrest", "setting": "[3]", "value": 8, "unit": "µg/mL"}, {"measurement": "concentration sufficient to growth arrest", "setting": "[4]", "value": 8, "unit": "µg/mL"}]}
